In the supplement of paper PMC11061612:

Experiments:
Experiment in all cases: Bliss excess, mean over the matrix (fraction); higher = more synergy
[1] = test system: BT-20 (Breast Carcinoma)
In short: (§1)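 Cell lines grown in DMEM/F12 or RPMI with 10% FBS were plated in 1536-well plates and held 24 hours at 37°C, 5% CO2 before 72 hours of exposure to two-drug dose matrices, with DMSO typically at 0.2%. CellTiter-Glo 2.0 luminescence gave viability, which was converted to inhibition. Vehicle wells were set to 0 and blank wells to 1. Combination Emax is the second-highest inhibition in the matrix, and Bliss excess is the observed combination effect minus the expected EA + EB − EA·EB, where EA and EB are the single-agent effects.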

[2] = test system: KP-2 (Pancreatic Carcinoma)
In short: as §1

[3] = test system: SCC-3 (B-Cell Non-Hodgkin's Lymphoma)
In short: as §1

[4] = test system: PFSK-1 (Other Solid Carcinomas)
In short: as §1

[5] = test system: EW-18 (Ewing's Sarcoma)
In short: as §1

[6] = test system: IMR-5 (Neuroblastoma)
In short: as §1

[7] = test system: EBC-1 (Squamous Cell Lung Carcinoma)
In short: as §1

[8] = test system: OVISE (Ovarian Carcinoma)
In short: as §1

[9] = test system: A704 (Kidney Carcinoma)
In short: as §1

[10] = test system: SNU-C1 (Colorectal Carcinoma)
In short: as §1

[11] = test system: SCC-9 (Oral Cavity Carcinoma)
In short: as §1

[12] = test system: KU-19-19 (Bladder Carcinoma)
In short: as §1

[13] = test system: OCUM-1 (Gastric Carcinoma)
In short: as §1

[14] = test system: NCI-H2347 (Lung Adenocarcinoma)
In short: as §1

[15] = test system: DG-75 (Burkitt's Lymphoma)
In short: as §1

[16] = test system: TGBC11TKB (Gastric Carcinoma)
In short: as §1

[17] = test system: NCI-H322M (Lung Adenocarcinoma)
In short: as §1

[18] = test system: RPMI-7951 (Melanoma)
In short: as §1

[19] = test system: LOU-NH91 (Squamous Cell Lung Carcinoma)
In short: as §1

[20] = test system: GOTO (Neuroblastoma)
In short: as §1

Row | Compound | Bliss excess [1] | Bliss excess [2] | Bliss excess [3] | Bliss excess [4] | Bliss excess [5] | Bliss excess [6] | Bliss excess [7] | Bliss excess [8] | Bliss excess [9] | Bliss excess [10] | Bliss excess [11] | Bliss excess [12] | Bliss excess [13] | Bliss excess [14] | Bliss excess [15] | Bliss excess [16] | Bliss excess [17] | Bliss excess [18] | Bliss excess [19] | Bliss excess [20]
1 | CN(C)CCCOc1ccc(-c2ccc3ncc4c(c3c2)n(C2CCOCC2)c(=O)n4C)cn1 [AZD0156] + O=C(c1cc(Cc2n[nH]c(=O)c3ccccc23)ccc1F)N1CCN(C(=O)C2CC2)CC1 [Olaparib] (first compound max 3 µM, partner max 3 µM) | 0.0209 | -0.0072 | 0.28 | 0.0954 | 0.172 | 0.0884 | 0.0413 | -0.0084 | 0.026 | -0.0049 | 0.0741 | 0.0781 | -0.0199 | -0.0089 | 0.0614 | -0.0984 | 0.0142 | 0.0588 | -0.0153 | 0.0036
2 | C=CCn1c(=O)c2cnc(Nc3ccc(N4CCN(C)CC4)cc3)nc2n1-c1cccc(C(C)(C)O)n1 [AZD1775] + C1CN(CCC1(C(=O)N[C@@H](CCO)C2=CC=C(C=C2)Cl)N)C3=NC=NC4=C3C=CN4 [Capivasertib] (first compound max 3 µM, partner max 3 µM) | -0.0742 | -0.0475 | 0.0613 | -0.0268 | 0.0244 | -0.0214 | -0.0602 | -0.101 | -0.0259 | -0.0869 | 0.0038 | -0.0174 | -0.0694 | -0.0534 | 0.0215 | -0.0422 | 0.0152 | -0.0274 | -0.0301 | -0.0109
3 | CN(CCO)CC[C@H](CSc1ccccc1)Nc1ccc(S(=O)(=O)NC(=O)c2ccc(N3CCC([C@@H](O)c4ccccc4-c4ccc(Cl)cc4)CC3)cc2)cc1S(=O)(=O)C(F)(F)F [AZD4320] + C1CN(CCC1(C(=O)N[C@@H](CCO)C2=CC=C(C=C2)Cl)N)C3=NC=NC4=C3C=CN4 [Capivasertib] (first compound max 1 µM, 7x7, partner max 3 µM) | 0.0427 | -0.0583 | -0.0506 | 0.078 | -0.0124 | 0.154 | -0.0181 | -0.0459 | -0.1 | -0.0886 | -0.0761 | -0.0394 | -0.0087 | -0.0533 | -0.0093 | -0.0398 | -0.0402 | 0.0055 | -0.067 | -0.034
4 | CN(CCO)CC[C@H](CSc1ccccc1)Nc1ccc(S(=O)(=O)NC(=O)c2ccc(N3CCC([C@@H](O)c4ccccc4-c4ccc(Cl)cc4)CC3)cc2)cc1S(=O)(=O)C(F)(F)F [AZD4320] + C=CCn1c(=O)c2cnc(Nc3ccc(N4CCN(C)CC4)cc3)nc2n1-c1cccc(C(C)(C)O)n1 [AZD1775] (first compound max 1 µM, partner max 1 µM) | 0.0557 | 0.0889 | 0.0329 | 0.0344 | 0.0349 | 0.118 | 0.0187 | 0.0598 | 0.0138 | -0.0588 | -0.0054 | -0.018 | 0.03 | 0.034 | -0.0232 | 0.0443 | -0.0521 | -0.0023 | 0.105 | -0.0268
5 | CN(CCO)CC[C@H](CSc1ccccc1)Nc1ccc(S(=O)(=O)NC(=O)c2ccc(N3CCC([C@@H](O)c4ccccc4-c4ccc(Cl)cc4)CC3)cc2)cc1S(=O)(=O)C(F)(F)F [AZD4320] + CCN(CCO)CCCOc1ccc2c(Nc3cc(CC(=O)Nc4cccc(F)c4)[nH]n3)ncnc2c1 [AZD2811] (first compound max 1 µM, 7x7, partner max 1 µM) | 0.0212 | 0.0653 | -0.0063 | -0.0176 | -0.0795 | -0.0229 | 0.0178 | -0.0008 | -0.0659 | -0.0263 | -0.0115 | 0.0207 | 0.0648 | -0.0472 | -0.0224 | 0.0198 | -0.0353 | 0.0295 | 0.0995 | 0.0053
6 | CN(CCO)CC[C@H](CSc1ccccc1)Nc1ccc(S(=O)(=O)NC(=O)c2ccc(N3CCC([C@@H](O)c4ccccc4-c4ccc(Cl)cc4)CC3)cc2)cc1S(=O)(=O)C(F)(F)F [AZD4320] + CN(C)CCCOc1ccc(-c2ccc3ncc4c(c3c2)n(C2CCOCC2)c(=O)n4C)cn1 [AZD0156] (first compound max 1 µM, 7x7, partner max 1 µM) | 0.0323 | -0.0444 | 0.0226 | 0.0427 | 0.0042 | 0.0284 | -0.0075 | -0.0521 | -0.0411 | -0.0283 | -0.0423 | -0.0364 | -0.055 | -0.0378 | -0.0183 | -0.0242 | -0.0432 | 0.0046 | 0.0054 | -0.0041
7 | CN(CCO)CC[C@H](CSc1ccccc1)Nc1ccc(S(=O)(=O)NC(=O)c2ccc(N3CCC([C@@H](O)c4ccccc4-c4ccc(Cl)cc4)CC3)cc2)cc1S(=O)(=O)C(F)(F)F [AZD4320] + Cn1cnc2c(F)c(Nc3ccc(Br)cc3Cl)c(C(=O)NOCCO)cc21 [Selumetinib] (first compound max 1 µM, 7x7, partner max 3 µM) | 0.0937 | 0.0496 | 0.0222 | 0.057 | 0.0109 | 0.0409 | 0.0478 | 0.024 | -0.075 |  | 0.005 | 0.0193 | 0.0319 | 0.0288 | -0.0512 | 0.0843 | 0.0818 | -0.006 | 0.0027 | 0.13
8 | COc1nnc2ccc(N3CCC(c4ccc(OCCN5CCN(C)C(=O)[C@H]5C)cc4)CC3)nn12 [AZD5153] + CN(CC[C@H](CSC1=CC=CC=C1)NC2=C(C=C(C=C2)S(=O)(=O)NC(=O)C3=CC=C(C=C3)N4CCC(CC4)[C@H](C5=CC=CC=C5C6=CC=C(C=C6)Cl)O)S(=O)(=O)C(F)(F)F)CCO [AZD4320] (first compound max 1 µM, 7x7, partner max 1 µM) | -0.0001 | 0.0546 | 0.0235 | 0.0145 | 0.0033 | 0.0807 | 0.0628 | 0.0504 | 0.0754 |  |  | 0.0829 |  | -0.042 | -0.0557 |  | 0.0066 | 0.0467 | -0.0215 | 0.065
9 | Cc1c2c(nn1C)CSCc1cc(n(C)n1)CSc1cc(c3ccccc3c1)OCCCc1c(C(=O)O)n(C)c3c-2c(Cl)ccc13 [AZD5991] + C1CN(CCC1(C(=O)N[C@@H](CCO)C2=CC=C(C=C2)Cl)N)C3=NC=NC4=C3C=CN4 [Capivasertib] (first compound max 1 µM, 7x7, partner max 3 µM) | 0.131 | -0.01 | 0.102 | 0.0384 |  | 0.0045 | 0.0259 | -0.0651 | -0.065 | -0.0004 | -0.0113 | -0.0321 | -0.0032 | -0.0313 | -0.0281 | 0.0116 | 0.0198 | 0.0035 | 0.0122 | 0.0118
10 | Cc1c2c(nn1C)CSCc1cc(n(C)n1)CSc1cc(c3ccccc3c1)OCCCc1c(C(=O)O)n(C)c3c-2c(Cl)ccc13 [AZD5991] + C=CCn1c(=O)c2cnc(Nc3ccc(N4CCN(C)CC4)cc3)nc2n1-c1cccc(C(C)(C)O)n1 [AZD1775] (first compound max 1 µM, partner max 1 µM) | -0.02 | 0.0069 | 0.0088 | -0.0282 | -0.0102 | 0.0063 | 0.0007 | 0.0108 | -0.0506 | -0.0839 | -0.0123 | -0.0518 | -0.0148 | -0.0393 | -0.0098 | -0.0383 | -0.023 |  | 0.0376 | -0.0513
11 | Cc1c2c(nn1C)CSCc1cc(n(C)n1)CSc1cc(c3ccccc3c1)OCCCc1c(C(=O)O)n(C)c3c-2c(Cl)ccc13 [AZD5991] + CCN(CCO)CCCOc1ccc2c(Nc3cc(CC(=O)Nc4cccc(F)c4)[nH]n3)ncnc2c1 [AZD2811] (first compound max 1 µM, 7x7, partner max 1 µM) | 0.108 | 0.0395 | 0.0604 | -0.0393 | -0.0209 | -0.0117 | 0.0019 | 0.0535 | -0.0462 | -0.0256 |  | 0.0376 | -0.0031 | 0.0102 | 0.0704 | 0.0266 | -0.0057 | -0.0924 | 0.0225 | -0.0245
12 | CC(=O)c1c(C)c2cnc(Nc3ccc(N4CCNCC4)cn3)nc2n(C2CCCC2)c1=O [Palbociclib] + CN(CC[C@H](CSC1=CC=CC=C1)NC2=C(C=C(C=C2)S(=O)(=O)NC(=O)C3=CC=C(C=C3)N4CCC(CC4)[C@H](C5=CC=CC=C5C6=CC=C(C=C6)Cl)O)S(=O)(=O)C(F)(F)F)CCO [AZD4320] (first compound max 10 µM, 7x7, partner max 1 µM) | -0.01 | -0.0731 | -0.0046 | 0.016 | -0.0118 | 0.0866 | -0.0226 | -0.0207 | -0.0376 |  |  | -0.0482 |  | -0.109 | -0.0373 |  | -0.0711 | 0.0312 | -0.0157 | 0.0226
13 | C[C@@H](c1ccc2nccn2c1)n1nnc2ncc(-c3cnn(C)c3)nc21 [Savolitinib] + CN(CC[C@H](CSC1=CC=CC=C1)NC2=C(C=C(C=C2)S(=O)(=O)NC(=O)C3=CC=C(C=C3)N4CCC(CC4)[C@H](C5=CC=CC=C5C6=CC=C(C=C6)Cl)O)S(=O)(=O)C(F)(F)F)CCO [AZD4320] (first compound max 1 µM, 7x7, partner max 1 µM) | -0.0084 | -0.0136 | -0.0083 | 0.0076 | -0.0221 | -0.0399 | -0.0067 | -0.0472 | -0.0766 |  |  | -0.0259 |  | -0.0474 | -0.0338 |  | -0.0487 | -0.0203 | -0.0642 | 0.0166
